These results are taken from ChEMBL document CHEMBL1157392, “A cycloartane incorporating a fused tetrahydrofuran ring and a cytotoxic lactam from Monocarpia marginalis” (J Nat Prod, 2008).

Common to all, as to assay type: functional, cell-based
The test system of one experiment is KB. The experiment can be described thus: Cytotoxicity against drug-sensitive human KB cells.
The subject of another experiment is Jurkat. Nature of the experiment: Cytotoxicity against human Jurkat cells.
Experiment [1] is described as follows: Cytotoxicity against vincristine-resistant human KB/VJ300 cells.

≈ marks a conversion by molar mass, not a printed value.

Regarding `CC(C)=C1CC[C@H]([C@H]2CC[C@@]3(C)[C@@H]4CC[C@H]5C(C)(C)[C@@H](O)C(=O)C[C@@]56C[C@@]46CC[C@]23C)[C@H](O)C1` [MONOCARPINE], in the experiment with KB, the IC50 (commonly the concentration that gives 50% inhibition) was > 5 µg/mL.

Regarding `COc1cc2c(c3c1=CC=N3)C(=O)C1=CC=CC(=O)NC=21` [MONOMARGININE], the values for the IC50 (in the experiment with Jurkat; in experiment [1]; with KB) were 0.4 µg/mL (≈ 1.44 µM), 2.6 µg/mL (≈ 9.34 µM) and 4 µg/mL (≈ 14.4 µM), respectively.

In the case of `O=C1C=CC=C2C(=O)c3c4c(ccc3=C2N1)=CC=N4` [MONOMARGINE], the figures for the IC50 (in the experiment with Jurkat; in experiment [1]; in the experiment on KB) were 0.7 µg/mL (≈ 2.82 µM), 3 µg/mL (≈ 12.1 µM) and 4.7 µg/mL (≈ 18.9 µM), respectively.
